PubChem BioAssay (NCI)
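1) Cells in 96-well plates. 2) Compound, 48 h, 5 concentrations. 3) Linear interpolation between surrounding doses. 4) Unreached endpoint = highest concentration. At the GI50, growth is halved. TGI: total growth inhibition.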

Tests used:
Experiment in all cases: DTP human tumour cell line panel, 48 h
[1] = tested on: HL-60(TB) leukemia
[2] = tested on: EKVX NSCLC
[3] = tested on: SNB-75 CNS
[4] = tested on: DU-145 prostate
[5] = tested on: HCC-2998 colon
[6] = tested on: SF-295 CNS
[7] = tested on: PC-3 prostate
[8] = tested on: MOLT-4 leukemia
[9] = tested on: NCI-H226 lung
[10] = tested on: A498 renal
[11] = tested on: COLO 205 colon
[12] = tested on: SK-OV-3 ovarian
[13] = tested on: BT-549 breast
[14] = tested on: MDA-MB-231 breast
[15] = tested on: SF-268 CNS
[16] = tested on: IGROV1 ovarian
[17] = tested on: SF-539 CNS
[18] = tested on: CCRF-CEM leukemia
[19] = tested on: UACC-257 melanoma
[20] = tested on: SR leukemia
[21] = tested on: RPMI-8226 leukemia
[22] = tested on: UO-31 renal
[23] = tested on: MDA-MB-468 breast
[24] = tested on: SNB-19 CNS
[25] = tested on: RXF 393 renal
[26] = tested on: A549 NSCLC
[27] = tested on: K-562 leukemia
[28] = tested on: UACC-62 melanoma
[29] = tested on: HCT-116 colon
[30] = tested on: NCI-H23 lung
[31] = tested on: CAKI-1 renal
[32] = tested on: M14 melanoma
[33] = tested on: OVCAR-4 ovarian
[34] = tested on: MDA-MB-435
[35] = tested on: SN12C renal
[36] = tested on: U251 CNS
[37] = tested on: HOP-92 NSCLC
[38] = tested on: KM12 colon
[39] = tested on: OVCAR-8 ovarian
[40] = tested on: TK-10 renal
[41] = tested on: SK-MEL-2 melanoma
[42] = tested on: MCF7 breast
[43] = tested on: NCI-H460 lung
[44] = tested on: MALME-3M melanoma
[45] = tested on: SW-620 colon
[46] = tested on: HCT-15 colon
[47] = tested on: 786-0 renal
[48] = tested on: HOP-62 NSCLC
[49] = tested on: OVCAR-3 ovarian
[50] = tested on: SK-MEL-28 melanoma
[51] = tested on: OVCAR-5 ovarian
[52] = tested on: SK-MEL-5 melanoma
[53] = tested on: HT29 colon
[54] = tested on: NCI-H522 lung
[55] = tested on: LOX IMVI melanoma
[56] = tested on: ACHN renal
[57] = tested on: T-47D breast
[58] = tested on: HS 578T breast

O=C(c1ccc(O)cc1)C1[C@H](c2ccccc2Br)[C@@H](c2ccccc2)NC12C(=O)Nc1ccccc12 (stereo partly specified)
GI50 [1]: 15.1 µM
TGI [1]: 44.7 µM
GI50 [2]: 9.34 µM
TGI [2]: 23.2 µM
GI50 [3]: 7.87 µM
TGI [3]: 19.9 µM
GI50 [4]: 10 µM
TGI [4]: 19 µM
GI50 [5]: 8.48 µM
TGI [5]: 16.6 µM
GI50 [6]: 9.77 µM
TGI [6]: 21 µM
GI50 [7]: 8.03 µM
TGI [7]: 21.3 µM
GI50 [8]: 7.99 µM
TGI [8]: 25 µM
GI50 [9]: 6.82 µM
TGI [9]: 15 µM
GI50 [10]: 8.6 µM
TGI [10]: 16.8 µM
GI50 [11]: 9.19 µM
TGI [11]: 17.8 µM
GI50 [12]: 11.9 µM
TGI [12]: 31.3 µM
GI50 [13]: 7.23 µM
TGI [13]: 15 µM
GI50 [14]: 7.94 µM
TGI [14]: 15.8 µM
GI50 [15]: 7.83 µM
TGI [15]: 18.8 µM
GI50 [16]: 7.29 µM
TGI [16]: 15.5 µM
GI50 [17]: 9.08 µM
TGI [17]: 17.2 µM
GI50 [18]: 10 µM
TGI [18]: 22.9 µM
GI50 [19]: 8.73 µM
TGI [19]: 16.9 µM
GI50 [20]: 9.59 µM
TGI [20]: 24 µM
GI50 [21]: 12.8 µM
TGI [21]: 42.6 µM
GI50 [22]: 7.61 µM
TGI [22]: 15 µM
GI50 [23]: 7.08 µM
TGI [23]: 16 µM
GI50 [24]: 9.03 µM
TGI [24]: 17.2 µM
GI50 [25]: 5.14 µM
TGI [25]: 12.8 µM
GI50 [26]: 8.07 µM
TGI [26]: 16.9 µM
GI50 [27]: 12.9 µM
TGI [27]: 40.2 µM
GI50 [28]: 7.63 µM
TGI [28]: 15.1 µM
GI50 [29]: 8.93 µM
TGI [29]: 18 µM
GI50 [30]: 9.23 µM
TGI [30]: 18.2 µM
GI50 [31]: 7 µM
TGI [31]: 15.1 µM
GI50 [32]: 8.94 µM
TGI [32]: 17.7 µM
GI50 [33]: 8.72 µM
TGI [33]: 19.1 µM
GI50 [34]: 10.5 µM
TGI [34]: 20 µM
GI50 [35]: 8.7 µM
TGI [35]: 16.6 µM
GI50 [36]: 9.11 µM
TGI [36]: 17.1 µM
GI50 [37]: 7.83 µM
TGI [37]: 16.4 µM
GI50 [38]: 9.8 µM
TGI [38]: 20.2 µM
GI50 [39]: 9.27 µM
TGI [39]: 17.7 µM
GI50 [40]: 9.29 µM
TGI [40]: 18.8 µM
GI50 [41]: 8.33 µM
TGI [41]: 16.2 µM
GI50 [42]: 10.4 µM
TGI [42]: 27.6 µM
GI50 [43]: 9.17 µM
TGI [43]: 17.8 µM
GI50 [44]: 8.58 µM
TGI [44]: 16.4 µM
GI50 [45]: 10.1 µM
TGI [45]: 19.6 µM
GI50 [46]: 9.43 µM
TGI [46]: 20 µM
GI50 [47]: 9.47 µM
TGI [47]: 18.1 µM
GI50 [48]: 9.37 µM
TGI [48]: 18.1 µM
GI50 [49]: 9.2 µM
TGI [49]: 18.3 µM
GI50 [50]: 9.1 µM
TGI [50]: 17.2 µM
GI50 [51]: 9.47 µM
TGI [51]: 18.2 µM
GI50 [52]: 8.92 µM
TGI [52]: 16.9 µM
GI50 [53]: 10.2 µM
TGI [53]: 20.5 µM
GI50 [54]: 8.25 µM
TGI [54]: 17.5 µM
GI50 [55]: 8.3 µM
TGI [55]: 16.2 µM
GI50 [56]: 9.17 µM
TGI [56]: 17.8 µM
GI50 [57]: 10.5 µM
TGI [57]: 38.9 µM
GI50 [58]: 9.49 µM
TGI [58]: 27.2 µM
